Source: paper PMC11290694 (Science (New York, N.Y.), 2024)
Read-outs that look alike come from different tables or passages of the source.

Key:
[1] = target: PiB; experiment: UV-visible absorption titration, single-site global fit; assay type: binding, synthetic construct
[2] = target: PiB′; experiment: as above; assay type: binding, synthetic construct

Structure (SMILES)	Kd [1]	Kd ([2]; PDB 8TNB is labelled mefuparib-bound PiB in b31 but PiB′ in b20 and b22)	Kd [2]
CNCc1ccc(-c2cc3cc(F)cc(C(N)=O)c3o2)cc1 [mefuparib]	190 nM	350 nM	–
NC(=O)c1cccc2cn(-c3ccc([C@@H]4CCCNC4)cc3)nc12 [niraparib]	600 nM	–	550 nM
